Consider five compounds from patent US20230117034A1, “PYRAZOLOTRIAZINES” (Bayer Aktiengesellschaft, priority 2019, published 2023).

The test system of assay [1] is CAL-120, human breast adenocarcinoma cells. Put plainly: Proliferation assay CAL-120 (crystal violet, 4 days). The format is cell-based. Conditions: Homo sapiens, CAL-120, 96 h, CAL-120 cells, median, read-out: Prolif-CAL-120, IC50-[mol/l] (median). The procedure, abridged: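 Following a 24 h attachment in 10% fetal calf serum medium, cells receive test substance over 0.01-10 µmol/L for 4 days. Dye retained by fixed cells is eluted and read at 595 nm; cell number change is referenced to day-0 and untreated wells.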

The target of assay [2] is T1, CDK12 (nuclear staining in CAL-120 cells) (Homo sapiens, UniProt Q9NYV4).
T1 construct: endogenous in cells; host or cells: CAL-120 human breast cancer cells (DSMZ ACC 459)
Description: CDK12 nuclear protein level: immunofluorescence/high content analysis (CAL-120). The format is cell-based. Conditions: for DC50: CAL-120 cells, 24 h, immunofluorescence, 50% reduction of nuclear CDK12 staining intensity, median, read-out: CDK12 degradation IF, DC50- [mol/l] (median); for (IC50 CDK12 high ATP) to (Degradation DC50 CDK12) ratio: ratio of IC50 CDK12 high ATP kinase assay to DC50 CDK12 degradation (IF, CAL-120). The procedure, abridged:
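CAL-120 cells were treated with compound for 24 h at 37 °C, fixed with PFA and immunostained for CDK12. Nuclear CDK12 intensity was quantified by automated image analysis and normalized to DMSO and control. DC50 is the concentration giving 50% reduction of nuclear staining.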

Another assay has as its target T2, CDK2/CycE (Homo sapiens, UniProt P24941).
T2 construct: purchased ProQinase GmbH (Freiburg, Germany); host or cells: insect cells (Sf9)
Description: CDK2/CycE kinase assay (TR-FRET, 2 mM ATP). Conditions: 2 mM ATP (high ATP); median; read-out: CDK2/CyclinE, 2 mM ATP (high ATP), IC50 (median). Format: biochemical. A digest of the protocol:
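GST-tagged human CDK2 and CycE from Sf9 cells, about 10 ng/ml, pre-incubated 15 min at 22 °C with compound in Tris/HCl pH 8.0 buffer. Reaction with 2 mM ATP and 0.75 µM biotinylated peptide for 25 min at 22 °C. Phospho-RB antibody TR-FRET (665/620 nm ratio) read after 1 h; data normalised to no-inhibitor and no-enzyme controls.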

Bounds are passed on as bounds.

T1 sequence (Q9NYV4 whole entry): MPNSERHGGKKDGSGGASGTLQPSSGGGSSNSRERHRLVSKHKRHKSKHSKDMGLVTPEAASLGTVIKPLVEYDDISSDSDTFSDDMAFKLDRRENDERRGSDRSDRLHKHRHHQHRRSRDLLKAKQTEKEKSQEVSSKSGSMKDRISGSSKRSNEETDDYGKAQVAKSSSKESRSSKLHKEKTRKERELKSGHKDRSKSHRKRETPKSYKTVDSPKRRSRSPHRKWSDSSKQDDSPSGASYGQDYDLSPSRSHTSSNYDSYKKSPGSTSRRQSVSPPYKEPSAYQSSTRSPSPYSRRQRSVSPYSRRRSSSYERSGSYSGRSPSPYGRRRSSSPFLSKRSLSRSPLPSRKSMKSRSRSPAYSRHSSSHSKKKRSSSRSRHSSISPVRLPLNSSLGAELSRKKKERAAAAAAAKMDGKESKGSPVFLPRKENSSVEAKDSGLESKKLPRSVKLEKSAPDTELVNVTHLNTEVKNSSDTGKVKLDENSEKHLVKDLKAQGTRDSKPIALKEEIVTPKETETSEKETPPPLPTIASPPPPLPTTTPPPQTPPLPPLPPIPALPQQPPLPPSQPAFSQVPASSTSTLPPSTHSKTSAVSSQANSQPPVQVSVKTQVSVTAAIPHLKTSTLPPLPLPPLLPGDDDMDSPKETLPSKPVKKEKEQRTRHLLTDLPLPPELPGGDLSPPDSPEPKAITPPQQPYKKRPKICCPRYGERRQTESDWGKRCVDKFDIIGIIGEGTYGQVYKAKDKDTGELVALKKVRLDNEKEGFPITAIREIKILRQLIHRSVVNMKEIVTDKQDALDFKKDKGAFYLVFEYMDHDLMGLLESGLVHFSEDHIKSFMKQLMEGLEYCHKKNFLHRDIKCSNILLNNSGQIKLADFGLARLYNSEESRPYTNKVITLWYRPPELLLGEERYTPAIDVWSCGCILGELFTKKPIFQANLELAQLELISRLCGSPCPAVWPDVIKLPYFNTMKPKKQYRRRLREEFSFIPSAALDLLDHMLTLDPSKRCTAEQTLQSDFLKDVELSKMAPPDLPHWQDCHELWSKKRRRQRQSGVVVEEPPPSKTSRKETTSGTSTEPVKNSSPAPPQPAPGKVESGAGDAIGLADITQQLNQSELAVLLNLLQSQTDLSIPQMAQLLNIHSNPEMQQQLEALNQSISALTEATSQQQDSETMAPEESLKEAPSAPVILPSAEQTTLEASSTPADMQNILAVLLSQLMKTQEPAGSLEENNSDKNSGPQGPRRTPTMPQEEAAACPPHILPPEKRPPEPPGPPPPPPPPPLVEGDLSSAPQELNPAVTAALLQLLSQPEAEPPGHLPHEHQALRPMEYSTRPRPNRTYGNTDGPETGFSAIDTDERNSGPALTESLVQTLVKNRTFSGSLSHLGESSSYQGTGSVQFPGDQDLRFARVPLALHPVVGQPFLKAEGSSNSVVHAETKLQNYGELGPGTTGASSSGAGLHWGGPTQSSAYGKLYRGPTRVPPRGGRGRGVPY
T1 sequence (O75909 whole entry partner): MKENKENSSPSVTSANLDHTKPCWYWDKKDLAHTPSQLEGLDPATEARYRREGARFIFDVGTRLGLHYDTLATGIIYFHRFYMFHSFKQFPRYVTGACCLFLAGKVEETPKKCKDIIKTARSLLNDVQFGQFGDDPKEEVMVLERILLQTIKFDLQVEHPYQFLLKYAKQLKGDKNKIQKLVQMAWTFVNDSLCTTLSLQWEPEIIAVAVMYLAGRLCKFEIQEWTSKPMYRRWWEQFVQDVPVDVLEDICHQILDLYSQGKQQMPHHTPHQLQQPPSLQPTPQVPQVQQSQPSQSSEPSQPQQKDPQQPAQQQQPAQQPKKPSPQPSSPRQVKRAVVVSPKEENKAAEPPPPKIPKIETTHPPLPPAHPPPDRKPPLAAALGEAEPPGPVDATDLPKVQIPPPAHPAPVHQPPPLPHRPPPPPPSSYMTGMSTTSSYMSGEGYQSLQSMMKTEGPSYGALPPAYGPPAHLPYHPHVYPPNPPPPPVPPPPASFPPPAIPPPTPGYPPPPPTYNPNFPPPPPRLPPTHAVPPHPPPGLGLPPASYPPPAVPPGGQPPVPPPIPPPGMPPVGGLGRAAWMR

Consider `N[C@@H]1CCN(c2nc(NCc3nc4ccccc4[nH]3)n3ncc(Br)c3n2)C1` [Example 250, 2-[(3R)-3-aminopyrrolidin-1-yl]-N-[(1H-benzimidazol-2-yl)methyl]-8-bromopyrazolo[1,5-a][1,3,5]triazin-4-amine], for which the IC50 worked out at 3.49 nM in assay [1] and 12800 nM at CDK2/CycE. The DC50 in assay [2] turned out to be 3.16 nM. Further, in assay [2], the “(IC50 CDK12 high ATP) to (Degradation DC50 CDK12) ratio” value was found to be 3560.

For `c1ccc2[nH]c(CNc3nc(N4C[C@@H]5C[C@H]4CO5)nc4c(C5CC5)cnn34)nc2c1` [Example 254, N-[(1H-benzimidazol-2-yl)methyl]-8-cyclopropyl-2-[(1S,4S)-2-oxa-5-azabicyclo[2.2.1]heptan-5-yl]pyrazolo[1,5-a][1,3,5]triazin-4-amine], in assay [1], the IC50 came out at 87.7 nM. In addition, in assay [2], the DC50 amounted to 8.47 nM and the “(IC50 CDK12 high ATP) to (Degradation DC50 CDK12) ratio” value is on record as more than 2361. Moreover, the IC50 at CDK2/CycE was more than 20000 nM.

Consider `CCNC1CCN(c2nc(NCc3nc4ccccc4[nH]3)n3ncc(Br)c3n2)CC1` [Example 300], for which, in assay [1], the IC50 worked out at 16.2 nM. Moreover, in assay [2], the DC50 was 17.9 nM and the “(IC50 CDK12 high ATP) to (Degradation DC50 CDK12) ratio” value is listed as more than 1120. The IC50 at CDK2/CycE was more than 19700 nM.

For `CN[C@@H]1CCN(c2nc(NCc3nc4ccccc4[nH]3)n3ncc(Br)c3n2)C1` [Example 253, N-[(1H-benzimidazol-2-yl)methyl]-8-bromo-2-[(3R)-3-(methylamino)pyrrolidin-1-yl]pyrazolo[1,5-a][1,3,5]triazin-4-amine], the IC50 in assay [1] stood at 6.91 nM. In addition, in assay [2], the DC50 was determined as 0.875 nM and the “(IC50 CDK12 high ATP) to (Degradation DC50 CDK12) ratio” value was more than 22856. Moreover, the IC50 on CDK2/CycE was 12200 nM.

Regarding `FC1(F)CC1c1cnn2c(NCc3nc4ccccc4[nH]3)nc(N3CCOCC3)nc12` (centres unmarked) [Example 279, N-[(1H-benzimidazol-2-yl)methyl]-8-(2,2-difluorocyclopropyl)-2-(morpholin-4-yl)pyrazolo[1,5-a][1,3,5]triazin-4-amine], the IC50 in assay [1] is 17.2 nM. In addition, in assay [2], the DC50 was 4.72 nM and the “(IC50 CDK12 high ATP) to (Degradation DC50 CDK12) ratio” value came to 2961. Moreover, the IC50 at CDK2/CycE is more than 20000 nM.
